Measured values taken from patent US20060252807A1, “Novel ortho-terphenyl inhibitors of p38 kinase and methods of treating inflammatory disorders” (Kalypsys, Inc., priority 2005, published 2006).

The compounds below were run against T1, active p38 alpha enzyme (Upstate Biotechnology) (Homo sapiens, UniProt Q16539) (assay: p38α biochemical assay (ATP turnover, luminescent detection, Cambrex PKlight)). Conditions: p38α kinase; Table 1 Biological Activity.
T1 construct: purchased Upstate Biotechnology
T1 sequence (Q16539 whole entry): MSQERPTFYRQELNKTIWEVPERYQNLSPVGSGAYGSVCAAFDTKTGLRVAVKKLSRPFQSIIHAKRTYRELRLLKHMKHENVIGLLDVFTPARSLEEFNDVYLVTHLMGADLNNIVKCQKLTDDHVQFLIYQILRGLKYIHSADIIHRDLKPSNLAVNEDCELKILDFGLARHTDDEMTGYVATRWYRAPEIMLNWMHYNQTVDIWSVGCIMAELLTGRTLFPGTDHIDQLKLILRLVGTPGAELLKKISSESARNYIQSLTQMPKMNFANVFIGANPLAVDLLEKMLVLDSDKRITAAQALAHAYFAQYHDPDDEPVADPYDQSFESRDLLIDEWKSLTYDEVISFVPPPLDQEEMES
Procedure, shortened: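 Active human p38α was incubated with full-length MapkapK2 protein as substrate and 1.4 uM ATP (final) for 2 hours at 30C. Buffer: 200 mM Tris, 100 mM MgCl2, 1.5 mM EGTA, 4 mM CaCl2, 20 mM MOPS, 1 mM EDTA, 1% glycerol, 0.1% β-mercaptoethanol, 1 mg/ml BSA. Total ATP turnover read by luminescence.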

Row | Structure (SMILES) | IC50
1 | CCCCN(CC)C(=O)c1csc(-c2sc(C)nc2-c2ccc(F)cc2)n1 [Example 1852] | > 1000 nM
2 | CCCN(CCC)C(=O)c1csc(-c2sc(C)nc2-c2ccc(F)cc2)n1 [Example 1853] | > 1000 nM
3 | Cc1nc(-c2ccc(F)cc2)c(-c2nc(C(=O)N3CCSCC3)cs2)s1 [Example 1854] | > 1000 nM
4 | Cc1nc(-c2ccc(F)cc2)c(-c2nc(C(=O)N(CCO)CCO)cs2)s1 [Example 1855] | > 1000 nM
5 | Cc1nc(-c2ccc(F)cc2)c(-c2nc(C(=O)N3CC(C)CC(C)C3)cs2)s1 (centres unmarked) [Example 1856] | > 1000 nM
6 | Cc1nc(-c2ccc(F)cc2)c(-c2nc(C(=O)N(C)C3CCCCC3)cs2)s1 [Example 1857] | > 1000 nM
7 | Cc1nc(-c2ccc(F)cc2)c(-c2nc(C(=O)N3C(C)CCCC3C)cs2)s1 (centres unmarked) [Example 1858] | > 1000 nM
8 | Cc1nc(-c2ccc(F)cc2)c(-c2nc(C(=O)N3CCC(N(C)C)C3)cs2)s1 (centres unmarked) [Example 1859] | > 1000 nM
9 | Cc1nc(-c2ccc(F)cc2)c(-c2nc(C(=O)N3CC(C)NC(C)C3)cs2)s1 (centres unmarked) [Example 1860] | > 1000 nM
10 | Cc1nc(-c2ccc(F)cc2)c(-c2nc(C(=O)N3CCCC(CO)C3)cs2)s1 (centres unmarked) [Example 1861] | > 1000 nM
11 | Cc1nc(-c2ccc(F)cc2)c(-c2nc(C(=O)N3CC(C)OC(C)C3)cs2)s1 (centres unmarked) [Example 1863] | > 1000 nM
12 | Cc1nc(-c2ccc(F)cc2)c(-c2nc(C(=O)N3CCCCC3CO)cs2)s1 (centres unmarked) [Example 1864] | > 1000 nM
13 | CCN(CCCCO)C(=O)c1csc(-c2sc(C)nc2-c2ccc(F)cc2)n1 [Example 1865] | > 1000 nM
14 | Cc1nc(-c2ccc(F)cc2)c(-c2nc(C(=O)N3Cc4ccccc4C3)cs2)s1 [Example 1866] | > 1000 nM
15 | Cc1nc(-c2ccc(F)cc2)c(-c2nc(C(=O)N(C)Cc3ccccc3)cs2)s1 [Example 1867] | > 1000 nM
16 | CCN(C(=O)c1csc(-c2sc(C)nc2-c2ccc(F)cc2)n1)C1CCCCC1 [Example 1868] | > 1000 nM
17 | Cc1nc(-c2ccc(F)cc2)c(-c2nc(C(=O)N3CCC(C(N)=O)CC3)cs2)s1 [Example 1869] | > 1000 nM
18 | CC(=O)N[C@H]1CCN(C(=O)c2csc(-c3sc(C)nc3-c3ccc(F)cc3)n2)C1 [Example 1870] | > 1000 nM
19 | Cc1nc(-c2ccc(F)cc2)c(-c2nc(C(=O)N3CCCC(C(N)=O)C3)cs2)s1 (centres unmarked) [Example 1872] | > 1000 nM
20 | Cc1nc(-c2ccc(F)cc2)c(-c2nc(C(=O)N3CCCCC3CCO)cs2)s1 (centres unmarked) [Example 1873] | > 1000 nM
21 | Cc1nc(-c2ccc(F)cc2)c(-c2nc(C(=O)N3CCc4ccccc4C3)cs2)s1 [Example 1874] | > 1000 nM
22 | CCN(Cc1ccccc1)C(=O)c1csc(-c2sc(C)nc2-c2ccc(F)cc2)n1 [Example 1875] | > 1000 nM
23 | Cc1nc(-c2ccc(F)cc2)c(-c2nc(C(=O)N(C)CCc3ccccc3)cs2)s1 [Example 1877] | > 1000 nM
24 | Cc1nc(-c2ccc(F)cc2)c(-c2nc(C(=O)N(C)CCc3ccccn3)cs2)s1 [Example 1878] | > 1000 nM
25 | C=CCN(C(=O)c1csc(-c2sc(C)nc2-c2ccc(F)cc2)n1)C1CCCCC1 [Example 1881] | > 1000 nM
26 | COC(=O)C1CCN(C(=O)c2csc(-c3sc(C)nc3-c3ccc(F)cc3)n2)CC1 [Example 1882] | > 1000 nM
27 | Cc1nc(-c2ccc(F)cc2)c(-c2nc(C(=O)N(Cc3ccccc3)C(C)C)cs2)s1 [Example 1883] | > 1000 nM
28 | Cc1nc(-c2ccc(F)cc2)c(-c2nc(C(=O)N(CCO)Cc3ccccc3)cs2)s1 [Example 1884] | > 1000 nM
29 | Cc1nc(-c2ccc(F)cc2)c(-c2nc(C(=O)N(C)CC(O)c3ccccc3)cs2)s1 (centres unmarked) [Example 1885] | > 1000 nM

Further lines, results first:

Row | IC50 | Structure (SMILES)
30 | ≤ 1000 nM | COc1ccc(OC)c(CCNC(=O)c2csc(-c3sc(C)nc3-c3ccc(F)cc3)n2)c1 [Example 1823]
31 | ≤ 1000 nM | Cc1nc(-c2ccc(F)cc2)c(-c2nc(C(=O)NCc3ccc(N(C)C)cc3)cs2)s1 [Example 1824]
32 | ≤ 1000 nM | COc1ccc(CNC(=O)c2csc(-c3sc(C)nc3-c3ccc(F)cc3)n2)cc1O [Example 1825]
33 | > 1000 nM | Cc1nc(-c2ccc(F)cc2)c(-c2nc(C(=O)NC3CCN(Cc4ccccc4)CC3)cs2)s1 [Example 1826]
34 | ≤ 1000 nM | Cc1nc(-c2ccc(F)cc2)c(-c2nc(C(=O)NCc3ccccc3OC(F)(F)F)cs2)s1 [Example 1827]
35 | ≤ 1000 nM | Cc1nc(-c2ccc(F)cc2)c(-c2nc(C(=O)NCCc3ccc(S(N)(=O)=O)cc3)cs2)s1 [Example 1828]
36 | > 1000 nM | COc1ccc(C(=O)CNC(=O)c2csc(-c3sc(C)nc3-c3ccc(F)cc3)n2)cc1 [Example 1829]
37 | ≤ 1000 nM | Cc1nc(-c2ccc(F)cc2)c(-c2nc(C(=O)NCCc3ccc4c(c3)OCO4)cs2)s1 [Example 1830]
38 | > 1000 nM | Cc1nc(-c2ccc(F)cc2)c(-c2nc(C(=O)NCCC(c3ccccc3)c3ccccc3)cs2)s1 [Example 1831]
39 | ≤ 1000 nM | Cc1ccc(S(=O)(=O)NCCNC(=O)c2csc(-c3sc(C)nc3-c3ccc(F)cc3)n2)cc1 [Example 1832]
40 | > 1000 nM | Cc1nc(-c2ccc(F)cc2)c(-c2nc(C(=O)N(C)C)cs2)s1 [Example 1834]
41 | > 1000 nM | CCN(C)C(=O)c1csc(-c2sc(C)nc2-c2ccc(F)cc2)n1 [Example 1835]
42 | > 1000 nM | C#CCN(C)C(=O)c1csc(-c2sc(C)nc2-c2ccc(F)cc2)n1 [Example 1836]
43 | > 1000 nM | CCN(CC)C(=O)c1csc(-c2sc(C)nc2-c2ccc(F)cc2)n1 [Example 1837]
44 | > 1000 nM | CCCN(C)C(=O)c1csc(-c2sc(C)nc2-c2ccc(F)cc2)n1 [Example 1838]
45 | > 1000 nM | Cc1nc(-c2ccc(F)cc2)c(-c2nc(C(=O)N(C)CCO)cs2)s1 [Example 1839]
46 | > 1000 nM | Cc1nc(-c2ccc(F)cc2)c(-c2nc(C(=O)N(C)CCC#N)cs2)s1 [Example 1840]
47 | > 1000 nM | Cc1nc(-c2ccc(F)cc2)c(-c2nc(C(=O)N3CCOCC3)cs2)s1 [Example 1841]
48 | > 1000 nM | Cc1nc(-c2ccc(F)cc2)c(-c2nc(C(=O)N(C)CC(C)C)cs2)s1 [Example 1842]
49 | > 1000 nM | CCN(C(=O)c1csc(-c2sc(C)nc2-c2ccc(F)cc2)n1)C(C)C [Example 1843]
50 | > 1000 nM | CCCCN(C)C(=O)c1csc(-c2sc(C)nc2-c2ccc(F)cc2)n1 [Example 1844]
51 | > 1000 nM | CCN(CCO)C(=O)c1csc(-c2sc(C)nc2-c2ccc(F)cc2)n1 [Example 1845]
52 | > 1000 nM | Cc1nc(-c2ccc(F)cc2)c(-c2nc(C(=O)N3CCSC3)cs2)s1 [Example 1846]
53 | > 1000 nM | Cc1nc(-c2ccc(F)cc2)c(-c2nc(C(=O)N3CCCCC3C)cs2)s1 (centres unmarked) [Example 1847]
54 | > 1000 nM | Cc1nc(-c2ccc(F)cc2)c(-c2nc(C(=O)N3CCC(C)CC3)cs2)s1 [Example 1848]
55 | > 1000 nM | Cc1nc(-c2ccc(F)cc2)c(-c2nc(C(=O)N3CCN(C)CC3)cs2)s1 [Example 1849]
56 | ≤ 1000 nM | Cc1nc(-c2ccc(F)cc2)c(-c2nc(C(=O)N3CCCC3CO)cs2)s1 (centres unmarked) [Example 1850]
57 | > 1000 nM | Cc1nc(-c2ccc(F)cc2)c(-c2nc(C(=O)N3CCC[C@@H]3CO)cs2)s1 [Example 1851]
58 | ≤ 1000 nM | COC[C@@H]1CCCN1C(=O)c1csc(-c2sc(C)nc2-c2ccc(F)cc2)n1 [Example 1862]
59 | ≤ 1000 nM | Cc1nc(-c2ccc(F)cc2)c(-c2nc(C(=O)N3CCCC4CCCCC43)cs2)s1 (centres unmarked) [Example 1880]
